Measured values reported in patent US10722501B2 (BAYER AKTIENGESELLSCHAFT, priority 2016, dated 2020).

What follows are molecules tested against T1, recombinant full-length human prolyl endopeptidase (PREP) (Homo sapiens, UniProt P48147) (assay: Biochemical human prolyl endopeptidase (PREP) assay with fluorescently labelled substrate). Conditions: substrate Z-Gly-Pro-AMC 50 μM, 32° C., 60 min; some as mean values from multiple independent determinations.
T1 construct: To recombinant full-length human prolyl endopeptidase (PREP, R&D-Systems, 4308-SE); purchased R&D-Systems 4308-SE
T1 sequence (P48147 1-710): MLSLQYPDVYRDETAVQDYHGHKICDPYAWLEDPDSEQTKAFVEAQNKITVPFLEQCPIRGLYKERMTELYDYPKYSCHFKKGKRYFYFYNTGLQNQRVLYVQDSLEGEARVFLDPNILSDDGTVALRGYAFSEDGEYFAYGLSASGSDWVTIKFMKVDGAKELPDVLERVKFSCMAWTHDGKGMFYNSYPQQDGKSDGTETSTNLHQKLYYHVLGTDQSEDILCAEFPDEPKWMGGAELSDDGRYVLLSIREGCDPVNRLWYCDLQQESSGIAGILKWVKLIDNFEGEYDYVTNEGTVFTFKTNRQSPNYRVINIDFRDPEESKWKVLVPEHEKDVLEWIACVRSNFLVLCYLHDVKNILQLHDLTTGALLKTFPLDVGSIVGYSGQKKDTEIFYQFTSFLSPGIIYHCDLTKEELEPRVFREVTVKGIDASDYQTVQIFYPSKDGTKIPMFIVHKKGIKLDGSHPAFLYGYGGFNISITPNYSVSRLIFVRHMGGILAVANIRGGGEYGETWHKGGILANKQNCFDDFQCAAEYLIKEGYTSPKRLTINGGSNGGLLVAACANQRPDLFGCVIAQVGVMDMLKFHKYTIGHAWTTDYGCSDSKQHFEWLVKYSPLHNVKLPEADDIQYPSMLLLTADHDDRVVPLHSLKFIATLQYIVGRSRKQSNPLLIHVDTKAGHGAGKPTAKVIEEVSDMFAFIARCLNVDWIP
Summary of the method: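 0.4 nM (final, example) recombinant PREP in pH 7.5 Tris buffer with EDTA, GSH, BSA and Brij-35; compounds at 1 nM to 30 μM. Reaction started with 50 μM Z-Gly-Pro-AMC and followed by fluorescence (ex 360/em 465 nm) at 32° C for 60 min. IC50 interpolated from percent activity based on initial slopes.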
O=C(C1CCc2nn(Cc3ccc(Cl)nc3)c(=O)n21)N1CC(F)C1 (racemic) [Example 169, (5RS)-2-[(6-Chloropyridin-3-yl)methyl]-5-[(3-fluoroazetidin-1-yl)carbonyl]-2,5,6,7-tetrahydro-3H-pyrrolo[2,1-c][1,2,4]triazol-3-one] showed an IC50 of 31.5 nM. Molecule O=C(C1CC(C(F)(F)F)Cc2nn(Cc3ccc(Cl)nc3)c(=O)n21)N1CC(F)C1 (single isomer, unassigned) [Example 239, (5RS,7RS)-2-[(6-Chloropyridin-3-yl)methyl]-5-[(3-fluoroazetidin-1-yl)carbonyl]-7-(trifluoromethyl)-5,6,7,8-tetrahydro[1,2,4]triazolo[4,3-a]pyridin-3(2H)-one] has an IC50 of 11.2 nM. For O=C(C1CCc2nn(Cc3ccc(C(F)(F)F)nc3)c(=O)n21)N1C[C@@H](F)[C@@H](F)C1 (mixture of isomers) [Example 173, (5RS)-5-{[(3R,4S)-3,4-Difluoropyrrolidin-1-yl]carbonyl}-2-{[6-(trifluoromethyl)pyridin-3-yl]methyl}-2,5,6,7-tetrahydro-3H-pyrrolo[2,1-c][1,2,4]triazol-3-one], the IC50 was 5.85 nM. For CC(c1ccc(C(F)(F)F)nc1)n1nc2n(c1=O)[C@H](C(=O)N1CC[C@H](F)C1)CCC2 (single isomer, unassigned) [Example 217], the IC50 was 1.2 nM. For O=C([C@@H]1CCCc2nn(Cc3ccnc(C(F)(F)F)c3)c(=O)n21)N1CC[C@H](F)C1 [Example 450, (5S)-5-{[(3S)-3-Fluoropyrrolidin-1-yl]carbonyl}-2-{[2-(trifluoromethyl)pyridin-4-yl]methyl}-5,6,7,8-tetrahydro[1,2,4]triazolo[4,3-a]pyridin-3(2H)-one], the IC50 was 1.1 nM. For Cc1nonc1Cn1nc2n(c1=O)C(C(=O)N1CCCC1)CCC2 (racemic) [Example 60, (5RS)-2-[(4-Methyl-1,2,5-oxadiazol-3-yl)methyl]-5-(pyrrolidin-1-ylcarbonyl)-5,6,7,8-tetrahydro[1,2,4]triazolo[4,3-a]pyridin-3(2H)-one], the IC50 was 18.5 nM. CC1Cc2nn(Cc3ccc(F)c(Cl)c3)c(=O)n2C(C(=O)N2CC(F)C2)C1 (racemic) [Example 340, (5RS,7RS)-2-(3-Chloro-4-fluorobenzyl)-5-[(3-fluoroazetidin-1-yl)carbonyl]-7-methyl-5,6,7,8-tetrahydro[1,2,4]triazolo[4,3-a]pyridin-3(2H)-one] showed an IC50 of 0.48 nM. With O=C([C@@H]1CCCc2nn(Cc3ccc(F)c(Cl)c3)c(=O)n21)N1CCC(F)(F)C1 [Example 455, (5S)-2-(3-Chloro-4-fluorobenzyl)-5-[(3,3-difluoropyrrolidin-1-yl)carbonyl]-5,6,7,8-tetrahydro[1,2,4]triazolo[4,3-a]pyridin-3(2H)-one] the IC50 was 0.77 nM. COc1cccc(Cn2nc3n(c2=O)C(C(=O)N2CCC(F)(F)C2)CCC3)c1 (racemic) [Example 48, (5RS)-5-[(3,3-Difluoropyrrolidin-1-yl)carbonyl]-2-(3-methoxybenzyl)-5,6,7,8-tetrahydro[1,2,4]triazolo[4,3-a]pyridin-3(2H)-one] gave an IC50 of 5 nM. With O=C([C@@H]1CCCc2nn(Cc3ccc(Cl)cn3)c(=O)n21)N1CCSC1 [Example 505, (5S)-2-[(5-Chloropyridin-2-yl)methyl]-5-(1,3-thiazolidin-3-ylcarbonyl)-5,6,7,8-tetrahydro[1,2,4]triazolo[4,3-a]pyridin-3(2H)-one] the IC50 was 1.4 nM. Molecule O=C(C1CCCc2nn(Cc3ccc(Cl)c(Cl)c3)c(=O)n21)N1CCCC1 (racemic) [Example 39, (5RS)-2-(3,4-Dichlorobenzyl)-5-(pyrrolidin-1-ylcarbonyl)-5,6,7,8-tetrahydro[1,2,4]triazolo[4,3-a]pyridin-3(2H)-one] has an IC50 of 0.55 nM. In the case of CC1Cc2nn(Cc3ccc(C(F)(F)F)nc3)c(=O)n2C(C(=O)N2C[C@@H](F)[C@@H](F)C2)C1 (single isomer, unassigned) [Example 338], the IC50 is reported as 1.5 nM. CC1Cc2nn(Cc3ccnc(C(F)(F)F)c3F)c(=O)n2C(C(=O)N2C[C@@H](F)[C@@H](F)C2)C1 (mixture of isomers) [Example 333, (5RS,7RS)-5-{[(3R,4S)-3,4-Difluoropyrrolidin-1-yl]carbonyl}-2-{[3-fluoro-2-(trifluoromethyl)pyridin-4-yl]methyl}-7-methyl-5,6,7,8-tetrahydro[1,2,4]triazolo[4,3-a]pyridin-3(2H)-one] was tested, and the IC50 was 2.1 nM. In the case of O=C(C1CCCc2nn(Cc3ncc(C(F)(F)F)cc3Cl)c(=O)n21)N1CCCC1 (racemic) [Example 68, (5RS)-2-{[3-Chloro-5-(trifluoromethyl)pyridin-2-yl]methyl}-5-(pyrrolidin-1-ylcarbonyl)-5,6,7,8-tetrahydro[1,2,4]triazolo[4,3-a]pyridin-3(2H)-one], the IC50 is reported as 3.9 nM. O=C([C@@H]1CCCc2nn(Cc3ccc(F)c(F)c3)c(=O)n21)N1CCC(F)(F)C1 [Example 468, (5S)-2-(3,4-Difluorobenzyl)-5-[(3,3-difluoropyrrolidin-1-yl)carbonyl]-5,6,7,8-tetrahydro[1,2,4]triazolo[4,3-a]pyridin-3(2H)-one] gave an IC50 of 1.4 nM. O=C(C1CCC(C(F)(F)F)c2nn(Cc3ncccc3F)c(=O)n21)N1CC[C@H](F)C1 (mixture of isomers) [Example 273, (5RS,8RS)-2-[(3-Fluoropyridin-2-yl)methyl]-5-{[(3S)-3-fluoropyrrolidin-1-yl]carbonyl}-8-(trifluoromethyl)-5,6,7,8-tetrahydro[1,2,4]triazolo[4,3-a]pyridin-3(2H)-one] was tested, and the IC50 was 7.6 nM. With O=C([C@@H]1CCCc2nn(CCc3ncc(C(F)(F)F)cc3Cl)c(=O)n21)N1CC[C@H](F)C1 [Example 342, (5S)-2-{2-[3-Chloro-5-(trifluoromethyl)pyridin-2-yl]ethyl}-5-{[(3S)-3-fluoropyrrolidin-1-yl]carbonyl}-5,6,7,8-tetrahydro[1,2,4]triazolo[4,3-a]pyridin-3(2H)-one] the IC50 was 1.75 nM. With O=C(C1CCCc2nn(Cc3cc(Cl)cc(Cl)c3)c(=O)n21)N1CCC(F)(F)C1 (racemic) [Example 82, (5RS)-2-(3,5-Dichlorobenzyl)-5-[(3,3-difluoropyrrolidin-1-yl)carbonyl]-5,6,7,8-tetrahydro[1,2,4]triazolo[4,3-a]pyridin-3(2H)-one] the IC50 was 1.75 nM. CC1Cc2nn(Cc3ccc(F)c(Cl)c3)c(=O)n2C(C(=O)N2C[C@@H](F)[C@@H](F)C2)C1 (mixture of isomers) [Example 339, (5RS,7RS)-2-(3-Chloro-4-fluorobenzyl)-5-{[(3R,4S)-3,4-difluoropyrrolidin-1-yl]carbonyl}-7-methyl-5,6,7,8-tetrahydro[1,2,4]triazolo[4,3-a]pyridin-3(2H)-one] gave an IC50 of 0.49 nM. In the case of COc1ccc(C2(Cn3nc4n(c3=O)[C@H](C(=O)N3CCC(F)(F)C3)CCC4)CC2)cc1 [Example 529, (5S)-5-[(3,3-Difluoropyrrolidin-1-yl)carbonyl]-2-{[1-(4-methoxyphenyl)cyclopropyl]methyl}-5,6,7,8-tetrahydro[1,2,4]triazolo[4,3-a]pyridin-3(2H)-one], the IC50 is reported as 0.96 nM. Work on O=C([C@@H]1CCCc2nn(Cc3ccc(C(F)(F)F)c(Cl)c3)c(=O)n21)N1C[C@@H](F)[C@@H](F)C1 [Example 458, (5S)-2-[3-Chloro-4-(trifluoromethyl)benzyl]-5-{[(3R,4S)-3,4-difluoropyrrolidin-1-yl]carbonyl}-5,6,7,8-tetrahydro[1,2,4]triazolo[4,3-a]pyridin-3(2H)-one] yielded an IC50 of 0.51 nM. In the case of Cc1ccc(Cn2nc3n(c2=O)C(C(=O)N2CCCC2)CC(C(F)(F)F)C3)cc1 (single isomer, unassigned) [Example 226, (5RS,7RS)-2-(4-Methylbenzyl)-5-(pyrrolidin-1-ylcarbonyl)-7-(trifluoromethyl)-5,6,7,8-tetrahydro[1,2,4]triazolo[4,3-a]pyridin-3(2H)-one], the IC50 is reported as 3.6 nM. Molecule Cc1ccc(Cn2nc3n(c2=O)C(C(=O)N2CCC(=O)C2)CCC3)cc1 (racemic) [Example 118, (5RS)-2-(4-Methylbenzyl)-5-[(3-oxopyrrolidin-1-yl)carbonyl]-5,6,7,8-tetrahydro[1,2,4]triazolo[4,3-a]pyridin-3(2H)-one] has an IC50 of 5.6 nM. Work on O=C(C1CCCc2nn(Cc3ccc(Cl)nc3)c(=O)n21)N1CC[C@H](F)C1 (mixture of isomers) [Example 561, (5RS)-2-[(6-Chlorpyridin-3-yl)methyl]-5-{[(3S)-3-fluorpyrrolidin-1-yl]carbonyl}-5,6,7,8-tetrahydro[1,2,4]triazolo[4,3-a]pyridin-3(2H)-on] yielded an IC50 of 0.37 nM. Cc1ccc(Cn2nc3n(c2=O)[C@H](C(=O)N2CC[C@@H]2C)CCC3)cc1 [Example 148, (5S)-5-{[(2S)-2-Methylazetidin-1-yl]carbonyl}-2-(4-methylbenzyl)-5,6,7,8-tetrahydro[1,2,4]triazolo[4,3-a]pyridin-3(2H)-one] gave an IC50 of 21.3 nM.
